Results as given in patent publication US5608143A, “External regulation of gene expression” (E. I. Du Pont de Nemours and Company, priority 1994, dated 1997).

How the values were obtained:
[1] = test system: 2-2 promoter/HRA recombinant gene; test: RNAse protection analysis of HRA (ALS) mRNA in leaves of tobacco transformed with 2-2 promoter/HRA gene; assay type: in vivo; conditions: excised leaves, 200 mg/l in 0.5× Hoagland's, 16-24 hours
Procedure: The expression of stable cytoplasmic mRNA transcribed from the wild type and transforming ALS genes in transformed plants were measured by RNAse protection analysis. In this manner, expression of the pDuPS22 construction was distinguished from the wild type ALS genes by virtue of the fact that the pDUPS22 transcript has a 2-2 untranslated leader that is divergent from the untranslated leader of the native ALS genes. […]
RNAse protection assays were carried out using the protocol of Zinn et al. (Zinn et al. Cell (1983) 34, 865-879). […] The sizes of the labelled RNA fragments remaining after digestion with RNAse T1 and RNAse A were determined by electrophoresis using 6% denaturing polyacrylamide gels.

[2] = test system: 5-2 gene (In 5-2 mRNA); test: RNA slot blot / Northern analysis of 5-2 mRNA in roots of chemically treated corn; assay type: in vivo, corn (Missouri 17); design: In5-2 induction level: key to the marks not given beside the values
Procedure: Details of the techniques used to perform Example 3 are presented in Example 1. The cDNA library made from poly (A)+ RNA from the roots of N-(aminocarbonyl)-2-chlorobenzenesulfonamide-treated Missouri 17 corn plants described in Example 1 was analyzed for additional cDNA clones representing N-(aminocarbonyl)-2-chlorobenzenesulfonamide-induced mRNAs. […] This colony was designated In 5-2.
A small scale plasmid preparation was performed on an overnight culture of In 5-2 and an aliquot of the plasmid, designated pIn 5-2, was nick-translated as described earlier. Slot blot analysis was performed as described in Example 1 using nick-translated In 5-2 plasmid. […] This plasmid was designated pIn 5-2.
An aliquot of the small scale plasmid preparation of pIn 5-2 was digested to completion with PSt I and analyzed by agarose gel electrophoresis. The cDNA insert of the plasmid was excised as a single 420 bp Pst I fragment. Plasmid pin 5-2 was nick-translated and used to probe a Northern blot of RNA from both untreated and N-(aminocarbonyl)-2-chlorobenzenesulfonamide-treated roots.
The ability at various substituted benzenesulfonamides and related compound to induce the expression of the 2-1, 2-2, and 5-2 genes of Missouri 17 corn was evaluated. Corn seeds were germinated and grown hydroponically in 2 liter beakers as described in Example 1. On the tenth day, plants were transferred into fresh 0.5× Hoagland's solution containing the chemical to be tested. Root tissue was harvested from the plants after six hours of chemical treatment, quick-frozen by immersion in liquid N2, and stored at -80° C. until analyzed.
Details of the RNA isolation and slot blot analysis procedures are presented in Example 1. Total RNA was prepared from the root tissue of plants that had been treated with various chemicals using the previously described guanidine thiocyanate procedure. Replicate blots, each consisting of 2 μg of total RNA from tissues treated with each of the chemicals shown in tables 8 and 9, were prepared on nitrocellulose membranes using a Minifold II® Slot-blotter (Schleicher & Schuell) following the manufacturer's recommeneded procedure. Replicate blots were prehybridized and hybridized with cDNA probes made by nick translation of the purified cDNA inserts from plasmid pIn 2-1, pIn 2-2-3, and pIn 5-2. Slot blots were washed as described in Example 1 and exposed to Kodak X-OMAT XAR-5 film for 24 hours at -80° C. using a single Du Pont Lightning Plus intensifying screen. Film was developed using a Kodak X-OMAT film processor. The abililty of a chemical to induce the mRNA encoded by the three inducible genes was evaluated in one of two ways. Qualitative evaluation was performed by direct visual comparison of the autoradiographic signal intensities on the films for the hybridization of each probe to the different RNA samples. Quantitative evaluation was performed by cutting each slot containing hybridized RNA from the blot, immersing it in 2 ml of Du Pont ECONOFLUOR® scintillation cocktail and counting the radioactivity in each slot in a scintillation counter. The net amount of radioactivity hybridizing to N-(aminocarbonyl)-2-chlorobenzenesulfonamide-treated RNA after subtraction of radioactivity hybridizing to untreated RNA is presented in Table 15.

[3] = hydroponic treatment, corn roots

NC(=O)NS(=O)(=O)c1ccccc1Cl
induction of HRA mRNA (RNAse protection) [1]: induction of high levels of stable cytoplasmic HRA mRNA | In5-2 induction level ([2]; hydroponic application, 100 ppm): +++++ | hybridization of pIn 5-2 to root RNA (Northern blot) [2, 3]: induced in root tissue by chemical treatment | hybridization of pIn 5-2 to root RNA (slot blot) [2, 3]: hybridizes strongly
